One data set concerns the target T1, human serum albumin (Homo sapiens, UniProt P02768).
T1 construct: purchased Biowest, Nuaillé, France
Nature of the data set: Binding to human serum albumin by albumin mediated size exclusion chromatography (AMSEC). The data set is classed as in vitro ADME. The following applies: size exclusion chromatography with HSA in the mobile phase, 177Lu-labeled. As to the method:
Binding of ^177Lu-labeled ligands to HSA was assessed by albumin mediated size exclusion chromatography (AMSEC). A gel filtration size exclusion column (Superdex 75 Increase 10/300 GL, GE Healthcare, Uppsala, Sweden) was used with HSA buffer at physiological concentration (700 μM, Biowest, Nuaillé, France) as mobile phase (constant flow rate of 0.8 mL/min at room temperature). For calibration purposes, a commercially available set of proteins (GE Healthcare, Buckinghamshire, UK) was used. Under these chromatographic conditions, the retention time of a radioligand (1.0 MBq, 10-20 GBq/μmol) depends on the extent of HSA/ligand interactions and thus, by means of the calibration with the aforementioned set of proteins, can be translated into an AMW (expressed in kDa) as a parameter allowing to quantify the extent of HSA binding. The detection window ranges between 2.3 kDa ([^18F]Fluoride; no HSA interaction) and 70.2 kDa (experimental molecular weight of HSA; maximum HSA interaction).

Data set [1] can be described thus: Lipophilicity, n-octanol/PBS (pH 7.4) distribution. The data set is classed as physicochemical. The following applies: n-octanol/PBS pH 7.4, 177Lu-labeled, n=6. As for the experimental part: Approximately 1 MBq of the ^177Lu-labeled PSMA ligand was dissolved in 1 mL of a 1:1 mixture (v/v) of phosphate-buffered saline (PBS, pH 7.4) and n-octanol (n=6). After vigorous mixing of the suspension for 3 min, the vial was centrifuged at 15000×g for 3 min and 100 μL aliquots of both layers were measured in a γ-counter. Finally, the ratio of the radioactivity detected in the n-octanol sample and the PBS buffer was calculated and expressed as distribution ratio log D7.4.

The subject of the next data set is LNCaP cells. Description: PSMA-mediated internalization into LNCaP cells. The following applies: 1 h, 37° C., percentage of reference ligand ([125I]BA)KuE, n=3. The data set is classed as cell-based. As to the method:
(§1) Competitive binding studies were determined on LNCaP cells (1.5×10^5 cells in 1 mL/well) after incubation at 4° C. for 1 h, using (((S)-1-carboxy-5-(4-([^125I]iodo)benzamido)pentyl)carbamoyl)-L-glutamic acid ([^125I]BA)KuE; 0.2 nM/well) as reference radioligand (n=3). Internalization studies of the radiolabeled ligands (1.0 nM/well) were performed on LNCaP cells (1.25×10^5 cells in 1 mL/well) at 37° C. for 1 h and accompanied by ([^125I]BA)KuE (0.2 nM/well), as reference. Data were corrected for non-specific binding and normalized to the specific internalization observed for the reference (n=3). A detailed description of the experimental procedures was previously published (Wurzer A, et al. J Nucl Med. 2020; 61: 735-742).

Another data set deals with T2, PSMA (Homo sapiens, UniProt Q04609).
T2 construct: endogenous in cells; host or cells: LNCaP cells
Description: Competitive binding studies on LNCaP cells vs ([125I]BA)KuE (affinity, IC50). Conditions: 1 h, 4° C., natLu complexes. As for the experimental part:
as §1

Data set [2] deals with LNCaP tumor-bearing male CB-17 SCID mice. Description: Ex vivo biodistribution in LNCaP tumor-bearing CB-17 SCID mice. The following applies: 24 h p.i. As to the method: All animal experiments were conducted in accordance with general animal welfare regulations in Germany (German animal protection act, as amended on 18 May 2018, Art. 141 G v. 29 Mar. 2017 I 626, approval no. 55.2-1-54-2532-71-13) and the institutional guidelines for the care and use of animals. LNCaP tumor xenografts were established in 6-8 weeks old male CB-17 SCID mice as described previously (Wurzer A, et al. J Nucl Med. 2020; 61: 735-742). Biodistribution Studies. The ^177Ludabeled PSMA inhibitors (2-5 MBq; 0.1 nmol) were injected under isoflurane anesthesia into the tail vein of LNCaP tumor-bearing male CB-17 SCID mice that were sacrificed 24 h post injection (p.i.) (n=4-5). Selected organs were removed, weighed, and measured in a counter. All rhPSMA ligands were evaluated in mice during the same time period (Q1/2020), whereas ^177Ludabeled PSMA-617 and PSMA I&T (Wirtz M, et al. EJNMMI Res. 2018; 8: 84) were assessed previously using the identical cell line, mouse model and experimental procedure.

Where “and” joins values, the source holds several entries; their conditions need not be identical. Equal entries are not always repeated.

T1 sequence (P02768 25-609): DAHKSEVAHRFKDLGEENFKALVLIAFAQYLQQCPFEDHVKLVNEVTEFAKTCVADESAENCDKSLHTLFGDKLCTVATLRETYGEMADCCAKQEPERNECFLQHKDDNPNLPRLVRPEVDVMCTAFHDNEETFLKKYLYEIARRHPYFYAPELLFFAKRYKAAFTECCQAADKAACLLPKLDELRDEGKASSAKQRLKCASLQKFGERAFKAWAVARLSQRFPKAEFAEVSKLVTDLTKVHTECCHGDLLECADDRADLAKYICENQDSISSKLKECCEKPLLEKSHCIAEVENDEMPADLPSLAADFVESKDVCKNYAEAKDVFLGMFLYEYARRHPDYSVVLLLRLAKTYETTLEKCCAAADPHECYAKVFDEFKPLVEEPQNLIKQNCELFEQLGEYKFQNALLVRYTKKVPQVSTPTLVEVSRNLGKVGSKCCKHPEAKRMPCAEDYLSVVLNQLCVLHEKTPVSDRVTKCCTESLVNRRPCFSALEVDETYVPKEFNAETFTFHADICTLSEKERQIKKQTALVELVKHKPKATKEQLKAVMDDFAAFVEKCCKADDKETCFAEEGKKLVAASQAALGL
T2 sequence (Q04609 whole entry): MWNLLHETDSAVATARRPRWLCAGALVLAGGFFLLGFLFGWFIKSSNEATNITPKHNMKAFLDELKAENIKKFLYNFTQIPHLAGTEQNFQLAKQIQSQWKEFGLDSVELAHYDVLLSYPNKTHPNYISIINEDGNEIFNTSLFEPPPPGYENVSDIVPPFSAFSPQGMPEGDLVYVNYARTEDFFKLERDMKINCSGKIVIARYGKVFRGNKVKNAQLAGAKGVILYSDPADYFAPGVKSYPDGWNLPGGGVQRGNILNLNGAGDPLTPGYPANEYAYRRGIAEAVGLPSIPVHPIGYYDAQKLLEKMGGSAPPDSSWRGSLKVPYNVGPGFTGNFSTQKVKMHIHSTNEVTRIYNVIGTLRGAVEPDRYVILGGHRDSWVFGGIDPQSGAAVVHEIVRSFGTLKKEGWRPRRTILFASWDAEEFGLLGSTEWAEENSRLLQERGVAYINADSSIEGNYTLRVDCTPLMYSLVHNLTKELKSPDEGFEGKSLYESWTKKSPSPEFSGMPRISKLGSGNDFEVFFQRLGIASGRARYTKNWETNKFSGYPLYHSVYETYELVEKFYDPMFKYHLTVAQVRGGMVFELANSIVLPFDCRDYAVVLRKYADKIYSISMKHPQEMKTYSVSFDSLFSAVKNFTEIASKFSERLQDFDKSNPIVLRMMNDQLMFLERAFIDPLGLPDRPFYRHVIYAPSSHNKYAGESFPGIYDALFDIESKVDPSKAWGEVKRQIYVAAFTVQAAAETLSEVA

As to `O=C([O-])CN1CCN(CC(=O)[O-])CCN(CC(=O)NCC2CCC(C(=O)N[C@@H](Cc3ccc4ccccc4c3)C(=O)NCCCC[C@H](NC(=O)N[C@@H](CCC(=O)O)C(=O)O)C(=O)O)CC2)CCN(CC(=O)[O-])CC1.[177Lu+3]` (stereo partly drawn) [[^177Lu]PSMA-617], the “MWapp [kDa] (apparent molecular weight, AMW; HSA binding)” value (shortened to “MWapp [kDa]”) on human serum albumin was 13.7 kDa. Also, the logD7.4 in data set [1] is recorded as −4.1 ± 0.1. The “Internalization [% IBA-KuE]” value in the data set with LNCaP cells was 203±10 % IBA-KuE and 203.2 ± 10.1 % IBA-KuE. The IC50 on PSMA (n=3) was 3.27 ± 0.19 nM; at PSMA (n=3, listed as [^natLu]PSMA-617) it was 3.3 ± 0.2 nM.

Consider `CC(C)(C)[Si](F)(c1ccc(C(=O)NC[C@@H](NC(=O)CC[C@@H](C(=O)O)N2CCN(CC(=O)[O-])CCN(CC(=O)[O-])CCN(CC(=O)[O-])CC2)C(=O)N[C@H](CCCCNC(=O)CCC(=O)NCCC[C@@H](NC(=O)CC[C@H](NC(=O)N[C@@H](CCC(=O)O)C(=O)O)C(=O)O)C(=O)O)C(=O)O)cc1)C(C)(C)C.[Lu+3]` [[^177Lu, ^19F]rhPSMA-7.3], for which the “MWapp [kDa]” value at human serum albumin came out at 30.4 kDa. Further, the logD7.4 in data set [1] is −4.12 ± 0.11. The “Internalization [% IBA-KuE]” value in the data set on LNCaP cells came out at 184.4 ± 11.8 % IBA-KuE. Further, in data set [2] (n=5, mean of ratios per mouse), the Tumor-to-organ ratio adrenals amounted to 44.34, the Tumor-to-organ ratio blood was 4255, the Tumor-to-organ ratio bone came out at 625.98 and the Tumor-to-organ ratio heart amounted to 542.49. For the same compound, in data set [2] (n=5, mean of ratios per mouse), the Tumor-to-organ ratio intestine was found to be 254.02, the Tumor-to-organ ratio kidney was determined as 1.64, the Tumor-to-organ ratio liver was 78.11 and the Tumor-to-organ ratio lung stood at 239.97. Besides, in data set [2] (n=5, mean of ratios per mouse), the Tumor-to-organ ratio muscle was 2123.58, the Tumor-to-organ ratio pancreas turned out to be 754.34, the “Tumor-to-organ ratio parotid gl.” value stood at 176.66 and the Tumor-to-organ ratio spleen came to 34.32. In data set [2] (n=5, mean of ratios per mouse), the Tumor-to-organ ratio stomach came out at 453.70 and the “Tumor-to-organ ratio submand. gl.” value was 290.08. Further, in data set [2] (n=5, mean of ratios per mouse, listed as [^177Lu]rhPSMA-7.3), the Tumor-to-organ ratio blood was found to be 4255.56. Also, in data set [2] (n=5, mean, complete dataset), the Activity accumulation adrenals came out at 0.4233 % ID/g, the Activity accumulation blood turned out to be 0.0046 % ID/g, the Activity accumulation bone is recorded as 0.0307 % ID/g and the Activity accumulation heart was 0.0333 % ID/g. In data set [2] (n=5, mean, complete dataset), the Activity accumulation intestine stood at 0.1001 % ID/g, the Activity accumulation kidney is 11.4±1.4 % ID/g, the Activity accumulation liver is given as 0.2352 % ID/g and the Activity accumulation lung stood at 0.0768 % ID/g. Besides, in data set [2] (n=5, mean, complete dataset), the Activity accumulation muscle turned out to be 0.0094 % ID/g, the Activity accumulation pancreas is recorded as 0.0241 % ID/g, the “Activity accumulation parotid gl.” value was determined as 0.1068 % ID/g and the Activity accumulation spleen is 0.5817 % ID/g. Moreover, in data set [2] (n=5, mean, complete dataset), the Activity accumulation stomach turned out to be 0.0434 % ID/g and the “Activity accumulation submand. gl.” value is reported as 0.0644 % ID/g. Also, in data set [2] (n=5, mean, complete dataset, LNCaP tumor), the Activity accumulation tumor is reported as 18.1740 % ID/g. This compound came in with an Activity accumulation kidney in data set [2] (n=5, mean, complete dataset, listed as [^177Lu]rhPSMA-7.3) of 11.3738 % ID/g. On PSMA (n=3), this compound gave an IC50 of 3.29 ± 1 nM.

For the compound `CC(C)(C)[Si](F)(c1ccc(C(=O)NC[C@H](NC(=O)CC[C@@H](C(=O)O)N2CCN(CC(=O)[O-])CCN(CC(=O)[O-])CCN(CC(=O)[O-])CC2)C(=O)N[C@H](CCCCNC(=O)CCC(=O)NCCC[C@@H](NC(=O)CC[C@H](NC(=O)N[C@@H](CCC(=O)O)C(=O)O)C(=O)O)C(=O)O)C(=O)O)cc1)C(C)(C)C.[Lu+3]` [[^177Lu, ^19F]rhPSMA-7.4], the “MWapp [kDa]” value on human serum albumin is given as 35.7 kDa. The logD7.4 in data set [1] is −4.10 ± 0.14. In addition, in the data set with LNCaP cells, the “Internalization [% IBA-KuE]” value is 190.4 ± 10.5 % IBA-KuE. The compound further registered an IC50 on PSMA (n=3) of 3.06 ± 1.51 nM.

Turning to `CC(C)(C)[Si](F)(c1ccc(C(=O)NC[C@@H](NC(=O)CC[C@H](C(=O)O)N2CCN(CC(=O)[O-])CCN(CC(=O)[O-])CCN(CC(=O)[O-])CC2)C(=O)N[C@H](CCCCNC(=O)CCC(=O)NCCC[C@@H](NC(=O)CC[C@H](NC(=O)N[C@@H](CCC(=O)O)C(=O)O)C(=O)O)C(=O)O)C(=O)O)cc1)C(C)(C)C.[Lu+3]` [[^177Lu, ^19F]rhPSMA-7.1], the “MWapp [kDa]” value on human serum albumin is recorded as 26.3 kDa. Also, in data set [1], the logD7.4 is reported as −4.27 ± 0.24. Moreover, in the data set on LNCaP cells, the “Internalization [% IBA-KuE]” value was 137±6 % IBA-KuE and 137.4 ± 5.8 % IBA-KuE. At PSMA (n=3), this compound yielded an IC50 of 3.11 ± 0.64 nM.

Turning to `CC(C)(C)[Si](F)(c1ccc(C(=O)NC[C@H](NC(=O)CN2CCN(CC(=O)[O-])CCN(CC(=O)[O-])CCN(CC(=O)[O-])CC2)C(=O)N[C@H](CCCCNC(=O)CCC(=O)NCCC[C@@H](NC(=O)CC[C@H](NC(=O)N[C@@H](CCC(=O)O)C(=O)O)C(=O)O)C(=O)O)C(=O)O)cc1)C(C)(C)C.[Lu+3]` [[^177Lu, ^19F]rhPSMA-10.2], at human serum albumin, the “MWapp [kDa]” value is on record as 21.8 kDa. Also, the logD7.4 in data set [1] was −3.8 and −3.83 ± 0.10. Moreover, in the data set on LNCaP cells, the “Internalization [% IBA-KuE]” value was determined as 205.6 ± 8.3 % IBA-KuE. Besides, the “Tumor uptake” value in data set [2] (LNCaP tumor) came out at 10.5±3.3 % ID/g. The compound also came in with an IC50 at PSMA (n=3) of 3.61 ± 0.59 nM.

As for `CC(C)(C)[Si](F)(c1ccc(C(=O)NC[C@H](NC(=O)CC[C@H](C(=O)O)N2CCN(CC(=O)[O-])CCN(CC(=O)[O-])CCN(CC(=O)[O-])CC2)C(=O)N[C@H](CCCCNC(=O)CCC(=O)NCCC[C@@H](NC(=O)CC[C@H](NC(=O)N[C@@H](CCC(=O)O)C(=O)O)C(=O)O)C(=O)O)C(=O)O)cc1)C(C)(C)C.[Lu+3]` [[^177Lu, ^19F]rhPSMA-7.2], the “MWapp [kDa]” value at human serum albumin is 31.7 kDa. For the same compound, the logD7.4 in data set [1] is recorded as −4.25 ± 0.29. In the data set on LNCaP cells, the “Internalization [% IBA-KuE]” value turned out to be 197.3 ± 15.0 % IBA-KuE. Besides, the IC50 on PSMA (n=3) stood at 2.88 ± 1.06 nM.

(Values after US20240066155A1, “DUAL MODE RADIOTRACER AND -THERAPEUTICS” (priority 2021, published 2024).)
